Measured values: patent publication US10844092B2, “Peptide for promoting regeneration of dentin or dental pulp tissue” (HysensBio Co., Ltd., priority 2016, dated 2020)

Each substance was assayed on Dspp gene (assay: mRNA level of Dspp gene in MDPC-23 cells by real-time PCR). Conditions: 48 hours, ratio relative to Dspp mRNA level of control group, triplicate.
Assay type: cell-based, mouse
Description: The MDPC-23 cells cultured in Example 2-1 were treated with the peptides of the respective groups which were synthesized in Example 1, and cultured for 48 hours. Then, mRNA levels of an odontoblast differentiation marker Dspp gene expressed in the MDPC-23 cells were measured, and a ratio of the measured Dspp mRNA level relative to a Dspp mRNA level measured in a control group was calculated, respectively (Tables 13 to 24). Further, mean values of the Dspp mRNA levels measured in the peptides of respective groups were compared between the groups (FIG. 1B). In this regard MDPC-23 cells which were treated with none of the peptides of the present invention were used as a control group.
The expression levels of the Dspp gene were measured by RT-PCR and real time PCR analysis: In detail, total RNA was extracted from the MDPC-23 cells with TRIzol reagent. 2 μg of the total RNA, 1 μl of reverse transcriptase, and 0.5 μg oligo (dT) were used to synthesize cDNA. The synthesized cDNA were used in real-time polymerase chain reaction. The real-time polymerase chain reaction was performed on an ABI PRISM 7500 sequence detection system (Applied Biosystems) using the following primers and a SYBR GREEN PCR Master Mix (Takara, Japan). The real-time polymerase chain reaction was performed under conditions of 94° C., 1 min; 95° C., 15 sec 60° C., 34 sec for 40 cycles. Results were analyzed by a comparative cycle threshold (CT) method. In this regard, Gapdh gene was used as an internal control. The experiments were performed in triplicate, and then mean values and standard deviations thereof were taken as measured values.

Substance	mRNA level of Dspp gene, Mean
55 (KYRQKKRNYK; Synthetic construct of novel peptide) [compound 55]	1.663
79 (KYKQKKRSKY; Synthetic construct of novel peptide) [compound 79]	2.231
77 (KYKQKKKSKY; Synthetic construct of novel peptide) [compound 77]	1.729
41 (KYRQRKKSKY; Synthetic construct of novel peptide) [compound 41]	1.546
91 (KYKQRRKSYK; Synthetic construct of novel peptide) [compound 91]	4.362
18 (KYQRRKRNYK; Synthetic construct of novel peptide) [compound 18]	2.319
86 (KYKQKRKNYK; Synthetic construct of novel peptide) [compound 86]	3.705
14 (KYQRKRKSKY; Synthetic construct of novel peptide) [compound 14]	1.846
23 (KYQRKKRNYK; Synthetic construct of novel peptide) [compound 23]	2.171
78 (KYKQKRKSKY; Synthetic construct of novel peptide) [compound 78]	2.635
36 (KYRQRRRNKY; Synthetic construct of novel peptide) [compound 36]	2.319
76 (KYKQRRRSKY; Synthetic construct of novel peptide) [compound 76]	2.351
96 (KYKQKRRSYK; Synthetic construct of novel peptide) [compound 96]	5.211
72 (KYKQKRRNKY; Synthetic construct of novel peptide) [compound 72]	2.011
46 (KYRQKRKSKY; Synthetic construct of novel peptide) [compound 46]	1.887
4 (KYQRRRRNKY; Synthetic construct of novel peptide) [compound 4]	1.855
6 (KYQRKRKNKY; Synthetic construct of novel peptide) [compound 6]	1.746
5 (KYQRKKKNKY; Synthetic construct of novel peptide) [compound 5]	1.639
37 (KYRQKKKNKY; Synthetic construct of novel peptide) [compound 37]	1.597
69 (KYKQKKKNKY; Synthetic construct of novel peptide) [compound 69]	2.011
62 (KYRQKRKSYK; Synthetic construct of novel peptide) [compound 62]	1.672
44 (KYRQRRRSKY; Synthetic construct of novel peptide) [compound 44]	1.793

Substance	mRNA level of Dspp gene, Mean
90 (KYKQRKRSYK; Synthetic construct of novel peptide) [compound 90]	4.811
95 (KYKQKKRSYK; Synthetic construct of novel peptide) [compound 95]	4.620
61 (KYRQKKKSYK; Synthetic construct of novel peptide) [compound 61]	2.301
1 (KYQRRKKNKY; Synthetic construct of novel peptide) [compound 1]	1.754
74 (KYKQRKRSKY; Synthetic construct of novel peptide) [compound 74]	2.011
3 (KYQRRRKNKY; Synthetic construct of novel peptide) [compound 3]	1.464
31 (KYQRKKRSYK; Synthetic construct of novel peptide) [compound 31]	2.371
33 (KYRQRKKNKY; Synthetic construct of novel peptide) [compound 33]	1.712
48 (KYRQKRRSKY; Synthetic construct of novel peptide) [compound 48]	1.558
64 (KYRQKRRSYK; Synthetic construct of novel peptide) [compound 64]	1.967
30 (KYQRKRKSYK; Synthetic construct of novel peptide) [compound 30]	2.512
12 (KYQRRRRSKY; Synthetic construct of novel peptide) [compound 12]	1.548
15 (KYQRKKRSKY; Synthetic construct of novel peptide) [compound 15]	1.964
49 (KYRQRKKNYK; Synthetic construct of novel peptide) [compound 49]	1.923
68 (KYKQRRRNKY; Synthetic construct of novel peptide) [compound 68]	1.432
13 (KYQRKKKSKY; Synthetic construct of novel peptide) [compound 13]	1.685
34 (KYRQRKRNKY; Synthetic construct of novel peptide) [compound 34]	1.931
39 (KYRQKKRNKY; Synthetic construct of novel peptide) [compound 39]	1.712
45 (KYRQKKKSKY; Synthetic construct of novel peptide) [compound 45]	1.532
20 (KYQRRRRNYK; Synthetic construct of novel peptide) [compound 20]	2.553
57 (KYRQRKKSYK; Synthetic construct of novel peptide) [compound 57]	2.039
9 (KYQRRKKSKY; Synthetic construct of novel peptide) [compound 9]	1.854

Substance	mRNA level of Dspp gene, Mean
87 (KYKQKKRNYK; Synthetic construct of novel peptide) [compound 87]	3.888
51 (KYRQRRKNYK; Synthetic construct of novel peptide) [compound 51]	1.601
43 (KYRQRRKSKY; Synthetic construct of novel peptide) [compound 43]	1.669
94 (KYKQKRKSYK; Synthetic construct of novel peptide) [compound 94]	3.836
65 (KYKQRKKNKY; Synthetic construct of novel peptide) [compound 65]	1.723
75 (KYKQRRKSKY; Synthetic construct of novel peptide) [compound 75]	1.997
16 (KYQRKRRSKY; Synthetic construct of novel peptide) [compound 16]	1.739
83 (KYKQRRKNYK; Synthetic construct of novel peptide) [compound 83]	3.572
2 (KYQRRKRNKY; Synthetic construct of novel peptide) [compound 2]	1.646
47 (KYRQKKRSKY; Synthetic construct of novel peptide) [compound 47]	1.697
29 (KYQRKKKSYK; Synthetic construct of novel peptide) [compound 29]	1.883
93 (KYKQKKKSYK; Synthetic construct of novel peptide) [compound 93]	4.525
7 (KYQRKKRNKY; Synthetic construct of novel peptide) [compound 7]	1.864
89 (KYKQRKKSYK; Synthetic construct of novel peptide) [compound 89]	4.211
71 (KYKQKKRNKY; Synthetic construct of novel peptide) [compound 71]	1.879
53 (KYRQKKKNYK; Synthetic construct of novel peptide) [compound 53]	1.592
54 (KYRQKRKNYK; Synthetic construct of novel peptide) [compound 54]	1.437
81 (KYKQRKKNYK; Synthetic construct of novel peptide) [compound 81]	3.092
32 (KYQRKRRSYK; Synthetic construct of novel peptide) [compound 32]	2.219
50 (KYRQRKRNYK; Synthetic construct of novel peptide) [compound 50]	1.887
85 (KYKQKKKNYK; Synthetic construct of novel peptide) [compound 85]	3.670
88 (KYKQKRRNYK; Synthetic construct of novel peptide) [compound 88]	4.021
